Data as given in US8663607B2, “Ferrate(VI)-containing compositions and methods of using ferrate(VI)” (Battelle Memorial Institute, priority 2007, dated 2014).

What was measured:
[1] = Stain removal from HAP disk, grape juice stain; settings: disk A-4: grape juice stained disk treated the same way as P and Q (pH 8 SDS/HEPA buffer)
[2] = Stain removal from HAP disk, Cran-Grape juice stain; settings: disk A-5: Cran-Grape juice stain treated the same way as P and Q (pH 8 SDS/HEPA buffer)
Text: (§1) Oxidation resistant chelating buffer: 0.25M 1-Hydroxyethylidenediphosphonic acid (etridonic acid) (Dequest® 2010, Thermphos) (HEPA) was pH adjusted by microtitration with 10N NaOH. 1.28 g of 1-Hydroxyethylidenediphosphonic acid was to a 25-mL volumetric flask and brought to volume with HPDI water. The solution was transferred to a 50-mL beaker with a stir bar and pH adjusted using 10.04N NaOH, monitored with a calibrated pH meter. Aliquat 336® (Cognis) (also suitable is Aliquat 134®) (N-methyl-tri-(n-octyl)ammonium chloride), (N-methyl TOA) or “HEPA” chelating pH Buffer: 2.5-μL of N-methyl TOA was added to 5 mL of pH 7 HEPA buffer and sonicated for 1 minute. pH 7 Sodium Dodecyl Sulfate (SDS)/HEPA Buffer: 10 mg of SDS was added to 5 mL of pH 7 HEPA buffer and sonicated for 1 minute. pH 8 SDS/HEPA Buffer: 10 mg of SDS was added to 5 mL of pH 8 HEPA buffer and sonicated for 1 minute.
(§2) • A. A tea stained disk was placed into the bowl of the bowl of a watch glass and 100 μL of pH 7 HEPA buffer was pipetted onto the disk surface. 3.7 mg of potassium ferrate(VI) was added to the disk surface and mixed gently. […] The disk was rinsed at 10 minutes with HPDI water. […] 1 mL of pH 7 HEPA buffer was added followed by 9 mL of HPDI water. 9.7 mg of potassium ferrate(VI) was added. The tube was gently hand shaken for 10 minutes. The disk was removed and rinsed with HPDI water. […] 10 mg of potassium ferrate(VI) was added to 1 mL of pH 7 HEPA buffer in a 50 mL centrifuge tube. 9 mL HPDI water was added, and the solution was shaken for a few seconds followed by the addition of a tea stained HAP disk. The disk was removed at 10 minutes and rinsed with HPDI water. […] 1.3 mg of potassium ferrate(VI) added and mixed into the solution. […] 1.4 mg of potassium ferrate(VI) was added to the disk surface and mixed gently. […] The reaction was allowed to continue for 5 minutes. […] The disk was rinsed several times with HPDI water. 100 μL of pH 7 HEPA buffer was pipetted onto the disk surface and allowed to react for 5 minutes. […] 1 mg of potassium ferrate(VI) was added and mixed into the liquid.

[3] = Stain removal from HAP disk, coffee stain; settings: disk A-6: coffee stained disk treated the same way as P and Q (pH 8 SDS/HEPA buffer)
Text: as §1, §2

potassium ferrate(VI)
L* (lightness/darkness) [1]: 103.5 | a* (blue/red) [1]: −1.9 | appearance of disk after treatment [1]: All stains were removed | b* (yellow/green) [1]: −3.1 | reflectance of visible light at 450 nm [1]: 111.244 | reflectance of visible light at 750 nm [1]: 103.795 | ΔE (grape juice stain) [1]: 6.10 | L* (lightness/darkness) [2]: 107.3 | a* (blue/red) [2]: −3.2 | appearance of disk after treatment [2]: All stains were removed | b* (yellow/green) [2]: −5.5 | reflectance of visible light at 450 nm [2]: 126.369 | reflectance of visible light at 750 nm [2]: 108.805 | ΔE (cran-grape juice stain) [2]: 6.82 | L* (lightness/darkness) [3]: 101.9 | a* (blue/red) [3]: −2.1 | appearance of disk after treatment [3]: All stains were removed | b* (yellow/green) [3]: −2.8 | reflectance of visible light at 450 nm [3]: 106.774 | reflectance of visible light at 750 nm [3]: 99.233 | ΔE (coffee stain) [3]: 13.57
